What was measured:
Format in all cases: functional
Clonostachys rosea [1] = assay: Toxicity against Bionectria ochroleuca assessed as inhibition of mycelial growth at 0.25 to 1.50 mg/ml measured every 24 hr intervals over 192 hr
Clonostachys rosea [2] = assay: Toxicity against Bionectria ochroleuca I19 assessed as inhibition of mycelial growth at 0.25 to 1.50 mg/ml measured every 24 hr intervals over 192 hr
Clonostachys rosea [3] = assay: Toxicity against Bionectria ochroleuca I60 assessed as inhibition of mycelial growth at 0.25 to 1.50 mg/ml measured every 24 hr intervals over 192 hr
Clonostachys rosea [4] = assay: Toxicity against Bionectria ochroleuca I61 assessed as inhibition of mycelial growth at 0.25 to 1.50 mg/ml measured every 24 hr intervals over 192 hr
Clonostachys rosea [5] = assay: Toxicity against Bionectria ochroleuca I62 assessed as inhibition of mycelial growth at 0.25 to 1.50 mg/ml measured every 24 hr intervals over 192 hr
Clonostachys rosea [6] = assay: Toxicity against Bionectria ochroleuca assessed as inhibition of conidial germination at 0.25 to 1.50 mg/ml measured every 24 hr intervals over 192 hr
Clonostachys rosea [7] = assay: Toxicity against Bionectria ochroleuca I61 assessed as inhibition of conidial germination at 0.25 to 1.50 mg/ml measured every 24 hr intervals over 192 hr
Clonostachys rosea [8] = assay: Toxicity against Bionectria ochroleuca I62 assessed as inhibition of conidial germination at 0.25 to 1.50 mg/ml measured every 24 hr intervals over 192 hr
Clonostachys rosea [9] = assay: Toxicity against Bionectria ochroleuca assessed as inhibition of mycelial growth at 0.12 to 0.75 mg/ml measured every 24 hr intervals over 192 hr
Clonostachys rosea [10] = assay: Toxicity against Bionectria ochroleuca assessed as inhibition of conidial germination at 0.12 to 0.75 mg/ml measured every 24 hr intervals over 192 hr
Clonostachys rosea [11] = assay: Toxicity against Bionectria ochroleuca assessed as inhibition of mycelial growth at 0.011 to 0.066 mg/ml
Clonostachys rosea [12] = assay: Toxicity against Bionectria ochroleuca assessed as inhibition of conidial germination at 0.011 to 0.066 mg/ml
Clonostachys rosea [13] = assay: Toxicity against Bionectria ochroleuca I19 assessed as inhibition of mycelial growth at 0.006 to 0.037 mg/ml measured every 24 hr intervals over 192 hr
Clonostachys rosea [14] = assay: Toxicity against Bionectria ochroleuca I60 assessed as inhibition of mycelial growth at 0.006 to 0.037 mg/ml measured every 24 hr intervals over 192 hr
Clonostachys rosea [15] = assay: Toxicity against Bionectria ochroleuca assessed as inhibition of conidial germination at 0.006 to 0.037 ug/ml measured every 24 hr intervals over 192 hr
Clonostachys rosea [16] = assay: Toxicity against Bionectria ochroleuca I61 assessed as inhibition of mycelial growth at 0.006 to 0.037 mg/ml measured every 24 hr intervals over 192 hr
Clonostachys rosea [17] = assay: Toxicity against Bionectria ochroleuca I62 assessed as inhibition of mycelial growth at 0.006 to 0.037 mg/ml measured every 24 hr intervals over 192 hr
Clonostachys rosea [18] = assay: Toxicity against Bionectria ochroleuca assessed as inhibition of mycelial growth at 0.006 to 0.037 ug/ml measured every 24 hr intervals over 192 hr
Clonostachys rosea [19] = assay: Toxicity against Bionectria ochroleuca I19 assessed as inhibition of conidial germination at 0.12 to 0.75 mg/ml measured every 24 hr intervals over 192 hr
Clonostachys rosea [20] = assay: Toxicity against Bionectria ochroleuca I60 assessed as inhibition of conidial germination at 0.12 to 0.75 mg/ml measured every 24 hr intervals over 192 hr
Clonostachys rosea [21] = assay: Toxicity against Bionectria ochroleuca I61 assessed as inhibition of conidial germination at 0.12 to 0.75 mg/ml measured every 24 hr intervals over 192 hr
Clonostachys rosea [22] = assay: Toxicity against Bionectria ochroleuca I62 assessed as inhibition of conidial germination at 0.12 to 0.75 mg/ml measured every 24 hr intervals over 192 hr
Clonostachys rosea [23] = assay: Toxicity against Bionectria ochroleuca assessed as inhibition of mycelial growth at 0.009 to 0.055 ug/ml
Clonostachys rosea [24] = assay: Toxicity against Bionectria ochroleuca assessed as inhibition of conidial germination at 0.009 to 0.055 ug/ml

CCOC(=O)CC(SP(=S)(OC)OC)C(=O)OCC (stereo unspecified) [MALATHION]
growth inhibition (GI) (Clonostachys rosea [1]): 22%
growth inhibition (GI) (Clonostachys rosea [2]): 36.87%
growth inhibition (GI) (Clonostachys rosea [3]): 34.59%
growth inhibition (GI) (Clonostachys rosea [4]): 32.67%
growth inhibition (GI) (Clonostachys rosea [5]): 29.32%
inhibition (INH) (Clonostachys rosea [6]): 10%
inhibition (INH) (Clonostachys rosea [7]): 12.7%
inhibition (INH) (Clonostachys rosea [8]): 14.9%

CC12CC1(C)C(=O)N(c1cc(Cl)cc(Cl)c1)C2=O (stereo unspecified) [PROCYMIDONE]
growth inhibition (GI) (Clonostachys rosea [9]): 66%
inhibition (INH) (Clonostachys rosea [10]): 59%

CCc1cccc(C)c1N(C(=O)CCl)[C@@H](C)COC [S-METOLACHLOR]
growth inhibition (GI) (Clonostachys rosea [11]): 3.6%
inhibition (INH) (Clonostachys rosea [12]): 2.2%

CN1COCN(Cc2cnc(Cl)s2)/C1=N\[N+](=O)[O-] [THIAMETHOXAM]
growth inhibition (GI) (Clonostachys rosea [13]): 0.36%
growth inhibition (GI) (Clonostachys rosea [14]): 2.65%
inhibition (INH) (Clonostachys rosea [15]): 1%
growth inhibition (GI) (Clonostachys rosea [16]): 0.51%
growth inhibition (GI) (Clonostachys rosea [17]): 1.82%
growth inhibition (GI) (Clonostachys rosea [18]): 0.1%

COC(=O)NC(=S)Nc1ccccc1NC(=S)NC(=O)OC [THIOPHANATE METHYL]
growth inhibition (GI) (Clonostachys rosea [9]): 90%
inhibition (INH) (Clonostachys rosea [10]): 31%
inhibition (INH) (Clonostachys rosea [19]): 40.8%
inhibition (INH) (Clonostachys rosea [20]): 37.4%
inhibition (INH) (Clonostachys rosea [21]): 39.4%
inhibition (INH) (Clonostachys rosea [22]): 69.3%

CCCN(CCC)c1c([N+](=O)[O-])cc(C(F)(F)F)cc1[N+](=O)[O-] [TRIFLURALIN]
growth inhibition (GI) (Clonostachys rosea [23]): 3.6%
inhibition (INH) (Clonostachys rosea [24]): 2.2%

Source: ChEMBL document CHEMBL3044654, “Sensitivity of four isolates of Clonostachys rosea to pesticides used in the strawberry crop in Brazil” (2012)
